{"source": "patent US4337199A", "about": "“Antibiotic β-lactam compounds, production thereof, and their use as antimicrobial agent” (Sanraku-Ocean Co., Ltd., priority 1978, dated 1982)", "key": {"[1]": {"tested_on": "Gram-positive and Gram-negative bacteria", "conditions": "stated as known; cited from earlier work"}, "Proteus mirabilis P6": {"tested_on": "Proteus mirabilis P6", "experiment": "minimum inhibitory concentration, agar dilution assay", "format": "cell-based", "conditions": "P6, agar dilution, 35° C., 20 hours, read-out: minimum inhibitory concentration", "outline": "(§1)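 Two-fold dilutions of compound in sterile water were mixed into molten brain heart infusion agar at about 60 °C. Plates were inoculated with Trypto-Soy broth cultures (35 °C, 18–20 h) diluted to approximately 10^8 cells/ml. After 20 h at 35 °C, MIC was taken as the lowest concentration showing no growth.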"}, "Proteus rettgeri P7": {"tested_on": "Proteus rettgeri P7", "experiment": "minimum inhibitory concentration, agar dilution assay", "format": "cell-based", "conditions": "Providencia rettgeri, P7; agar dilution, 35° C., 20 hours; read-out: minimum inhibitory concentration", "outline": "as §1"}, "[2]": {"tested_on": "Pseudomonas aeruginosa NCTC10490", "experiment": "minimum inhibitory concentration, agar dilution assay", "format": "cell-based", "conditions": "NCTC10490, agar dilution, 35° C., 20 hours, read-out: minimum inhibitory concentration", "outline": "as §1"}, "[3]": {"tested_on": "Staphylococcus epidermidis", "experiment": "minimum inhibitory concentration, agar dilution assay", "format": "cell-based", "conditions": "agar dilution, 35° C., 20 hours, read-out: minimum inhibitory concentration", "outline": "as §1"}, "[4]": {"tested_on": "Staphylococcus aureus FDA 209P", "experiment": "minimum inhibitory concentration, agar dilution assay", "format": "cell-based", "conditions": "FDA209P, agar dilution, 35° C., 20 hours, read-out: minimum inhibitory concentration", "outline": "as §1"}, "[5]": {"tested_on": "Citrobacter freundii GN 346", "experiment": "minimum inhibitory concentration, agar dilution assay", "format": "cell-based", "conditions": "GN346, agar dilution, 35° C., 20 hours, read-out: minimum inhibitory concentration", "outline": "as §1"}, "Enterobacter cloacae 45": {"tested_on": "Enterobacter cloacae 45", "experiment": "minimum inhibitory concentration, agar dilution assay", "format": "cell-based", "conditions": "Enterobacter cloacae, 45; agar dilution, 35° C., 20 hours; read-out: minimum inhibitory concentration", "outline": "as §1"}, "Providencia sp. P8": {"tested_on": "Providencia sp. P8", "experiment": "minimum inhibitory concentration, agar dilution assay", "format": "cell-based", "conditions": "SP.P8, agar dilution, 35° C., 20 hours, read-out: minimum inhibitory concentration", "outline": "as §1"}, "Serratia marcescens T55": {"tested_on": "Serratia marcescens T55", "experiment": "minimum inhibitory concentration, agar dilution assay", "format": "cell-based", "conditions": "T55, agar dilution, 35° C., 20 hours, read-out: minimum inhibitory concentration", "outline": "as §1"}, "Proteus sp. P22": {"tested_on": "Proteus sp. P22", "experiment": "minimum inhibitory concentration, agar dilution assay", "format": "cell-based", "conditions": "agar dilution, 35° C., 20 hours; read-out: minimum inhibitory concentration", "outline": "as §1"}, "[6]": {"tested_on": "Klebsiella pneumoniae K-13", "experiment": "minimum inhibitory concentration, agar dilution assay", "format": "cell-based", "conditions": "K13, agar dilution, 35° C., 20 hours, read-out: minimum inhibitory concentration", "outline": "as §1"}, "Escherichia coli RGN 823": {"tested_on": "Escherichia coli RGN 823", "experiment": "minimum inhibitory concentration, agar dilution assay", "format": "cell-based", "conditions": "RGN823, agar dilution, 35° C., 20 hours, read-out: minimum inhibitory concentration", "outline": "as §1"}, "Sarcina lutea": {"tested_on": "Sarcina lutea", "experiment": "minimum inhibitory concentration, agar dilution assay", "format": "cell-based", "conditions": "Micrococcus luteus; agar dilution, 35° C., 20 hours; read-out: minimum inhibitory concentration", "outline": "as §1"}, "[7]": {"tested_on": "Bacillus subtilis ATCC 6633", "experiment": "minimum inhibitory concentration, agar dilution assay", "format": "cell-based", "conditions": "ATCC6633, agar dilution, 35° C., 20 hours, read-out: minimum inhibitory concentration", "outline": "as §1"}, "Alcaligenes faecalis A 1": {"tested_on": "Alcaligenes faecalis A 1", "experiment": "minimum inhibitory concentration, agar dilution assay", "format": "cell-based", "conditions": "A1, agar dilution, 35° C., 20 hours, read-out: minimum inhibitory concentration", "outline": "as §1"}, "[8]": {"tested_on": "Staphylococcus aureus Smith", "experiment": "minimum inhibitory concentration, agar dilution assay", "format": "cell-based", "conditions": "agar dilution, 35° C., 20 hours, read-out: minimum inhibitory concentration", "outline": "as §1"}, "Escherichia coli K-12": {"tested_on": "Escherichia coli K-12", "experiment": "minimum inhibitory concentration, agar dilution assay", "format": "cell-based", "conditions": "K12, 20 h, read-out: minimum inhibitory concentration", "outline": "as §1"}, "Enterobacter sp. E8": {"tested_on": "Enterobacter sp. E8", "experiment": "minimum inhibitory concentration, agar dilution assay", "format": "cell-based", "conditions": "SP.E8, agar dilution, 35° C., 20 hours, read-out: minimum inhibitory concentration", "outline": "as §1"}, "[9]": {"tested_on": "Staphylococcus aureus Russell", "experiment": "minimum inhibitory concentration, agar dilution assay", "format": "cell-based", "conditions": "agar dilution, 35° C., 20 hours, read-out: minimum inhibitory concentration", "outline": "as §1"}, "[10]": {"tested_on": "Pseudomonas aeruginosa IFO3445", "experiment": "minimum inhibitory concentration, agar dilution assay", "format": "cell-based", "conditions": "IFO3445, agar dilution, 35° C., 20 hours, read-out: minimum inhibitory concentration", "outline": "as §1"}, "Proteus vulgaris GN76": {"tested_on": "Proteus vulgaris GN76", "experiment": "minimum inhibitory concentration, agar dilution assay", "format": "cell-based", "conditions": "GN76, agar dilution, 35° C., 20 hours, read-out: minimum inhibitory concentration", "outline": "as §1"}, "Serratia marcescens S18": {"tested_on": "Serratia marcescens S18", "experiment": "minimum inhibitory concentration, agar dilution assay", "format": "cell-based", "conditions": "S18, agar dilution, 35° C., 20 hours, read-out: minimum inhibitory concentration", "outline": "as §1"}, "[11]": {"tested_on": "Enterobacter aerogenes E19", "experiment": "minimum inhibitory concentration, agar dilution assay", "format": "cell-based", "conditions": "Klebsiella aerogenes, E19; agar dilution, 35° C., 20 hours; read-out: minimum inhibitory concentration", "outline": "as §1"}, "[12]": {"tested_on": "Comamonas terrigena B-996", "experiment": "minimum inhibitory concentration, agar dilution assay", "format": "cell-based", "conditions": "B996, agar dilution, 35° C., 20 hours, read-out: minimum inhibitory concentration", "outline": "as §1"}}, "data": [{"smiles": "Cc1nnc(SCC2=C(C(=O)O)N3C(=O)[C@@H](NC(=O)Cn4cnnn4)[C@H]3SC2)s1", "note": "[CEZ, cephazolin, reference compound]", "values": [{"measurement": "effectiveness against Pseudomonas aeruginosa and Serratia, Proteus, Klebsiella, Enterobacter", "setting": "[1]", "result": "known to be effective against Pseudomonas aeruginosa and microorganisms of the genus Serratia, Proteus, Klebsiella, and Enterobacter"}, {"measurement": "MIC", "setting": "Proteus mirabilis P6", "result": 6.25, "unit": "µg/mL"}, {"measurement": "MIC", "setting": "Proteus rettgeri P7", "result": "> 200", "unit": "µg/mL"}, {"measurement": "MIC", "setting": "[2]", "result": "> 200", "unit": "µg/mL"}, {"measurement": "MIC", "setting": "[3]", "result": 0.1, "unit": "µg/mL"}, {"measurement": "MIC", "setting": "[4]", "result": 0.1, "unit": "µg/mL"}, {"measurement": "MIC", "setting": "[5]", "result": "> 200", "unit": "µg/mL"}, {"measurement": "MIC", "setting": "Enterobacter cloacae 45", "result": "> 200", "unit": "µg/mL"}, {"measurement": "MIC", "setting": "Providencia sp. P8", "result": 100, "unit": "µg/mL"}, {"measurement": "MIC", "setting": "Serratia marcescens T55", "result": "> 200", "unit": "µg/mL"}, {"measurement": "MIC", "setting": "Proteus sp. P22", "result": "> 200", "unit": "µg/mL"}, {"measurement": "MIC", "setting": "[6]", "result": 200, "unit": "µg/mL"}, {"measurement": "MIC", "setting": "Escherichia coli RGN 823", "result": 200, "unit": "µg/mL"}, {"measurement": "MIC", "setting": "Sarcina lutea", "result": 0.39, "unit": "µg/mL"}, {"measurement": "MIC", "setting": "[7]", "result": 0.2, "unit": "µg/mL"}, {"measurement": "MIC", "setting": "Alcaligenes faecalis A 1", "result": 3.13, "unit": "µg/mL"}, {"measurement": "MIC", "setting": "[8]", "result": 0.2, "unit": "µg/mL"}, {"measurement": "MIC", "setting": "Escherichia coli K-12", "result": 1.56, "unit": "µg/mL"}, {"measurement": "MIC", "setting": "Enterobacter sp. E8", "result": 3.13, "unit": "µg/mL"}, {"measurement": "MIC", "setting": "[9]", "result": 0.2, "unit": "µg/mL"}, {"measurement": "MIC", "setting": "[10]", "result": "> 200", "unit": "µg/mL"}, {"measurement": "MIC", "setting": "Proteus vulgaris GN76", "result": "> 200", "unit": "µg/mL"}, {"measurement": "MIC", "setting": "Serratia marcescens S18", "result": "> 200", "unit": "µg/mL"}, {"measurement": "MIC", "setting": "[11]", "result": "> 200", "unit": "µg/mL"}, {"measurement": "MIC", "setting": "[12]", "result": 0.2, "unit": "µg/mL"}]}]}
